Data on four compounds can be found in patent publication US20250152504A1, “INTRAUTERINE SYSTEMS COMPRISING ANTI-INFECTIVES FOR STEADY-STATE ACCUMULATION TO DISTAL EXTRAUTERINE TISSUE” (priority 2023, published 2025).

Data set [1] in a line: In vitro drug release from TPU matrix delivery system prototypes. The conditions noted are these: for cumulative release of loaded drug: after 30 days. In kind it is physicochemical. How it is done: Films were cut into disks with a 1-inch diameter die punch; disks were stacked and placed between two pieces of aluminum foil and compressed under a metal weight on a 120° C. dry bath. Thickness was monitored frequently until it measured 3.5 mm with digital calipers calibrated to 0.01 mm. Devices were cut from thick films using a custom rectangular 3.5 mm×13.3 mm die punch.
All release tests were performed in sink conditions in PBS supplemented with 2% w/v Cremophor® A25/Emulgin® B25. For the first 7-days of drug release testing, 1 mL samples were taken daily; following 7 days, samples were taken every 3-4 days. At all timepoints, bottles were drained and replaced with fresh media following sampling.
A qualification for selecting an optimal TPU for DPV delivery in this application is the time to achieve 50% cumulative release of drug. This is based on the standard use time of hormonal IUDs, which in practice are removed once about half of the initial load of drug is depleted from the device. Here, this standard was used as a benchmark to evaluate the sustained release properties of candidate delivery system designs. […] The fit of first-order release kinetics to the data was assessed. Equations 1 and 2 describe drug release from a system where dissolution is dependent on a concentration gradient.
Where k is the first order rate constant, Ct is the concentration of drug in solution at time t and C0 is the initial concentration of drug.
Where Q is the amount of drug release in time t and kh is the Higuchi release constant.
Based on the best-fit square-root of time relation, T50% was calculated for each TPU. […] Korsmeyer and Peppas provided a method for understanding drug release mechanisms of swelling and non-swelling polymeric systems, given by Equation 4: […]
Where Mt/M∝ is the fraction of drug released at time t, K is the rate constant, and n is the release exponent.

Data set [2] can be described thus: In vitro drug release from core-sheath reservoir delivery system prototypes. The following applies: 6 core-sheath reservoir prototypes, core TPU loaded at 1 wt %, three sheath polymers, 100 and 200 μm sheath thickness. In kind it is physicochemical. How it is done:
Reservoir delivery system prototypes were prepared using a heated coextrusion process. Briefly, core polymer (PY-PT43DE20) was melted and homogenized with the appropriate mass of dapivirine to achieve 1 wt % and 30 wt % core polymer loading. […] The inner crosshead diameter was varied mid-extrusion to generate devices with sheath thicknesses ranging from 100-200 μm while retaining a constant outer diameter. Material was cut to the desired length per device (13.33 mm) and in-spec devices were identified based on sheath thickness using brightfield microscopy. Devices were incubated for two weeks at 40° C. to equilibrate drug in the core and sheath compartments.
All release tests were performed in sink conditions in PBS supplemented with 2% w/v Cremophor® A25/Emulgin® B25. For the first 7-days of drug release testing, 1 mL samples were taken daily; following 7 days, samples were taken every 3-4 days. At all timepoints, bottles were drained and replaced with fresh media following sampling. For reservoir delivery system prototypes, three replicates of each formulation were end capped and one device was tested with no end cap to confirm the integrity of the end cap in preventing uncontrolled diffusion form the exposed core.
Both polyether sheath reservoirs (R1 & R2) released DPV faster than polycarbonate sheath reservoirs (R3 & R4). […]

Data set [3] is described as follows: Triple active compound (RAL, MVC, ETR) intrauterine system in vivo study, tissue and secretion concentrations. The conditions noted are these: for concentration at 28 days: 28 days after insertion. From the text: Described herein is a study conducted on an intrauterine system having a plurality of delivery systems (such as shown in FIGS. 1D and 1E). This study included three matrix delivery systems. The first delivery system included raltegravir (RAL), the second delivery system included etravirine (ETR), and the third delivery system included maraviroc (MVC). The intrauterine system was implanted and retained in the uterus of a patient for 28 days.
Multiple samples were taken before, during, and after insertion of the intrauterine system. Plasma samples were taken an hour before insertion, at insertion, 24 hours after insertion, 48 hours after insertion, 72 hours after insertion, 7 days after insertion, 14 days after insertion, 21 days after insertion, and 28 days after insertion (when the intrauterine system was removed). Vaginal swabs were taken an hour before insertion, at 7 days after insertion, 14 days after insertion, 21 days after insertion, and 28 days after insertion. Vaginal biopsies were taken an hour before insertion, 7 days after insertion, and 28 days after insertion. Endometrial and cervical biopsies were taken an hour before insertion and 28 days after insertion. Histology was also performed an hour before insertion, and consistent visual inspection was done throughout for safety.

Data set [4] can be described thus: Post-use assay of residual ARVs in removed IUDs (triple study). In kind it is in vivo. The conditions noted are these: for Average dose / Total DPV released: 28 days. An excerpt:
FIGS. 15A-15C are graphs showing post-use assays of residual anti-retroviral pharmaceutical compositions in removed intrauterine devices, in accordance with the present technology. […]

Setting [5] is: 20 wt % matrix, hydrophobic and crystalline TPU, after 20 days.
The mark [6] stands for this setting: 1 wt % loading, TPU2 matrix, from best-fit release model.
[7] abbreviates: 1 wt % loading, TPU3 matrix, from best-fit release model.
[8] abbreviates: 1 wt % loading, TPU4 matrix, from best-fit release model.
Where [9] appears, read: 1 wt %, TPU4 matrix, total by 30 days.
The mark [10] stands for this setting: 16.6 wt % loading, TPU4 matrix, from best-fit release model.
Where [11] appears, read: 16.6 wt %, TPU4 matrix, final rate at 30 days, per each ⅓ segment of the device.

Structures are written as SMILES. Read-outs that look alike come from different tables or passages of the source.

For the compound `Cc1nc(N(C)C(=O)Cc2ccc(-c3ccccn3)cc2)sc1S(N)(=O)=O` [PTV, pritelivir], the “time for half of the original dose to release” value in data set [1] (20 wt % matrix, Higuchi release kinetic analysis) was “approximately 500 days”. Further, in data set [1] (setting [5]), the cumulative release result is recorded as “approximately 9%” and the release rate came to 30 µg/day. Moreover, the “duration of use of the device” value in data set [1] (matrix device loaded with 20-30 mg of PTV, tested in vitro for 480 hours) is recorded as 3-4 years. In data set [2], this compound gave a daily release of 1 to 40 µg/day.

Regarding `Cc1nnc(C(=O)NC(C)(C)c2nc(C(=O)NCc3ccc(F)cc3)c(O)c(=O)n2C)o1` [RAL, raltegravir], the “Actual T50%” value in data set [1] (1 wt % loading, TPU2 matrix) was less than 1 days; in data set [1] (1 wt % loading, TPU3 matrix), 1 days. Further, the “First-Order: k” value in data set [1] (1 wt % loading, TPU2 matrix) is on record as 0.016, h^−1; in data set [1] (1 wt % loading, TPU3 matrix), 0.004, h^−1; in data set [1] (1 wt % loading, TPU4 matrix), 0.0004, h^−1; in data set [1] (16.6 wt % loading, TPU4 matrix) it was 0.0002, h^−1; in data set [1] (30 wt % loading, TPU4 matrix) it was 0.0002, h^−1. Further, the “Higuchi: kH” value in data set [1] (1 wt % loading, TPU2 matrix) was 0.052, %/h^1/2; in data set [1] (1 wt % loading, TPU3 matrix) it was 0.023, %/h^1/2; in data set [1] (1 wt % loading, TPU4 matrix), 0.010, %/h^1/2; in data set [1] (16.6 wt % loading, TPU4 matrix), 0.006, %/h^1/2; in data set [1] (30 wt % loading, TPU4 matrix) it was 0.005, %/h^1/2. Further, the “Predicted T50%” value is 2 days in data set [1] (setting [6]); 7 days in data set [1] (setting [7]); 109 days in data set [1] (setting [8]); 251 days in data set [1] (setting [10]); 363 days in data set [1] (30 wt % loading, TPU4 matrix, from best-fit release model). Besides, the “Korsmeyer-Peppas Constant: n” value in data set [1] (1 wt % loading, TPU3 matrix) is recorded as 0.201,; in data set [1] (1 wt % loading, TPU4 matrix), 0.333,; in data set [1] (16.6 wt % loading, TPU4 matrix) it was 0.455,. The “time to reach 100% release” value in data set [1] (1 wt %, TPU2 matrix) was 7 days. Also, the “cumulative release of encapsulated drug” value in data set [1] (1 wt %, TPU2 matrix, first 24 hours) is on record as “approximately 50%”; in data set [1] (1 wt %, TPU3 matrix, by 30 days / one month), 100%; in data set [1] (1 wt %, TPU3 matrix, first 24 hours), “approximately 50%”; in data set [1] (30 wt %, TPU4 matrix, at 30 days) it was “approximately 17%”. This compound showed a cumulative release in data set [1] (setting [9]) of 31.71%. Besides, in data set [1] (16.6 wt %, TPU4 matrix), the “cumulative release of loaded drug” value is “approximately 18%”. Also, the release rate result is “around 22 μg/day” in data set [1] (setting [11]) and 41.13 µg/day in data set [1] (30 wt %, TPU4 matrix, at study terminus (30 days), per each ⅓ segment of the device). In data set [3] (female, human, in vivo, 7 days after insertion, read-out: tissue concentration, Vagina), the concentration at 7 days turned out to be 194 ng/mL. Also, the concentration at 28 days in data set [3] (female, human, in vivo, read-out: tissue concentration, Cervix) is 237 ng/mL; in data set [3] (female, human, in vivo, read-out: tissue concentration, Endometrium), 237 ng/mL; in data set [3] (female, human, in vivo, read-out: tissue concentration, Rectum) it was 39.9 ng/mL; in data set [3] (female, human, in vivo, read-out: tissue concentration, Vagina), 253 ng/mL. The compound also showed a T50% in data set [4] of 101 days. In addition, in data set [4], the Average dose worked out at 46.31 µg/day. The “Total DPV released” value in data set [4] came out at 1.30 mg.

`Cc1cc(C#N)cc(C)c1Oc1nc(Nc2ccc(C#N)cc2)nc(N)c1Br` [ETR, etravirine]: the “Actual T50%” value in data set [1] (1 wt % loading, TPU2 matrix) was 13 days; in data set [1] (1 wt % loading, TPU3 matrix) it was 13 days. In addition, the “First-Order: k” value is 0.002, h^−1 in data set [1] (1 wt % loading, TPU2 matrix); 0.002, h^−1 in data set [1] (1 wt % loading, TPU3 matrix); 0.0004, h^−1 in data set [1] (1 wt % loading, TPU4 matrix); 0.0001, h^−1 in data set [1] (16.6 wt % loading, TPU4 matrix). Besides, the “Higuchi: kH” value in data set [1] (1 wt % loading, TPU2 matrix) is reported as 0.026, %/h^1/2; in data set [1] (1 wt % loading, TPU3 matrix) it was 0.030, %/h^1/2; in data set [1] (1 wt % loading, TPU4 matrix), 0.011, %/h^1/2; in data set [1] (16.6 wt % loading, TPU4 matrix), 0.003, %/h^1/2. Further, the “Korsmeyer-Peppas Constant: n” value is 0.484, in data set [1] (1 wt % loading, TPU2 matrix); 0.585, in data set [1] (1 wt % loading, TPU3 matrix); 0.535, in data set [1] (1 wt % loading, TPU4 matrix); 0.599, in data set [1] (16.6 wt % loading, TPU4 matrix). The “Predicted T50%” value is 15.5 days in data set [1] (setting [6]), 12 days in data set [1] (setting [7]), 90 days in data set [1] (setting [8]) and 857 days in data set [1] (setting [10]). The cumulative release in data set [1] (setting [9]) turned out to be 27.70%. Moreover, in data set [1] (16.6 wt %, TPU4 matrix), the “cumulative release of loaded drug” value turned out to be 8.5%. In data set [1] (setting [11]), the release rate was roughly 14 µg/day. Further, in data set [3] (female, human, endometrium, other: intrauterine (implanted intrauterine system), read-out: tissue concentration, Endometrium), the concentration at 28 days was 434 ng/mL. For the same compound, in data set [3] (in vivo), the “Mean concentration in vaginal secretions” value worked out at 344.30 ng/mL. For the same compound, the T50% in data set [4] was 300 days. Further, the Average dose in data set [4] turned out to be 15.24 µg/day. For the same compound, the “Total DPV released” value in data set [4] came out at 0.43 mg.

`Nc1nc2c(ncn2COCCO)c(=O)[nH]1` [ACV, acyclovir] registered a minimum release rate in data set [1] (20 wt % in TPU4 matrix, 15 days in vitro dissolution) of 59 µg/day. The compound further had a cumulative release in data set [1] (20 wt % in TPU4 matrix, after 15 days) of 18%. For the same compound, the “Predicted T50%” value in data set [1] (20 wt % in TPU4 matrix, best-fit in vitro release model) is recorded as 156 days. Also, in data set [1] (High saturation matrixes), the maximum release is reported as 1112 micrograms per day and the minimum release is reported as 109 micrograms per day.
